# Assay results published in ChEMBL document CHEMBL1201862, “PubChem BioAssay data set” (2004).
#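 Dose response: 5 concentrations. Exposure: 48 h. Format: 96-well plates. Endpoint: linear interpolation; highest concentration if not reached. At the GI50, growth is halved.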 Calls of active or inactive are those of the source. No stated cut-off is given here; in the data, active = GI50 up to about 1.1 µM and inactive = higher.
# Experiments:
# Assay in all cases: NCI tumour cell line growth inhibition, 48 h
# UO-31 = test system: UO-31
# COLO 205 = test system: COLO 205
# HCT-15 = test system: HCT-15
# HOP-62 = test system: HOP-62
# M14 = test system: M14
# MOLT-4 = test system: MOLT-4
# BT-549 = test system: BT-549
# LOX IMVI = test system: LOX IMVI
# SNB-75 = test system: SNB-75
# HCT-116 = test system: HCT-116
# RPMI-8226 = test system: RPMI-8226
# U-251 = test system: U-251
# HCC 2998 = test system: HCC 2998
# T47D = test system: T47D
# UACC-257 = test system: UACC-257
# CAKI-1 = test system: CAKI-1
# Malme-3M = test system: Malme-3M
# PC-3 = test system: PC-3
# SR = test system: SR
SMILES,GI50 (UO-31),GI50 (COLO 205),GI50 (HCT-15) [µM],GI50 (HOP-62),GI50 (M14),GI50 (MOLT-4),GI50 (BT-549),GI50 (LOX IMVI),GI50 (SNB-75),GI50 (HCT-116),GI50 (RPMI-8226),GI50 (U-251),GI50 (HCC 2998),GI50 (T47D),GI50 (UACC-257),GI50 (CAKI-1),GI50 (Malme-3M),GI50 (PC-3),GI50 (SR)
O=C(Cn1c2ccc(Br)cc2c2nc3ccccc3nc21)NC1CCCCC1,> 100 µM (inactive),> 100 µM (inactive),> 100,> 100 µM (inactive),> 100 µM (inactive),> 100 µM (inactive),> 100 µM (inactive),> 100 µM (inactive),36.1 µM (inactive),> 100 µM (inactive),> 100 µM (inactive),> 100 µM (inactive),> 100 µM (inactive),60.4 µM (inactive),> 100 µM (inactive),> 100 µM (inactive),> 100 µM (inactive),> 100 µM (inactive),–
CC1=C(C(=O)OC(C)(C)C)C(c2ccc([N+](=O)[O-])cc2)C(C(=O)OC(C)(C)C)=C(C)N1,19.4 µM (inactive),22.6 µM (inactive),36.5,23.4 µM (inactive),23.9 µM (inactive),16.9 µM (inactive),28 µM (inactive),18.5 µM (inactive),24.1 µM (inactive),20.5 µM (inactive),17 µM (inactive),21.1 µM (inactive),13.2 µM (inactive),14.7 µM (inactive),18.8 µM (inactive),28.9 µM (inactive),–,26.7 µM (inactive),–
O=C(NCCNCCNC(=O)C(F)(F)F)C(F)(F)F,> 100 µM (inactive),> 100 µM (inactive),> 100,> 100 µM (inactive),> 100 µM (inactive),> 100 µM (inactive),> 100 µM (inactive),> 100 µM (inactive),–,> 100 µM (inactive),> 100 µM (inactive),> 100 µM (inactive),> 100 µM (inactive),> 100 µM (inactive),> 100 µM (inactive),> 100 µM (inactive),> 100 µM (inactive),> 100 µM (inactive),> 100 µM (inactive)
N#Cc1c(-c2ccc(Cl)cc2Cl)nc2[nH]nc(S)n2c1=O,> 100 µM (inactive),> 100 µM (inactive),> 100,> 100 µM (inactive),> 100 µM (inactive),> 100 µM (inactive),> 100 µM (inactive),> 100 µM (inactive),–,> 100 µM (inactive),> 100 µM (inactive),> 100 µM (inactive),> 100 µM (inactive),> 100 µM (inactive),> 100 µM (inactive),> 100 µM (inactive),> 100 µM (inactive),> 100 µM (inactive),> 100 µM (inactive)
Cn1c(-c2ccc(/N=N/Nc3ccc(-c4n[nH]c(=S)n4C)cc3)cc2)n[nH]c1=S,2.85 µM (inactive),56 µM (inactive),> 100,20.3 µM (inactive),8.89 µM (inactive),3.08 µM (inactive),3.9 µM (inactive),16.4 µM (inactive),16 µM (inactive),25.7 µM (inactive),2.79 µM (inactive),13.2 µM (inactive),–,1.94 µM (inactive),> 100 µM (inactive),–,> 100 µM (inactive),> 100 µM (inactive),4.81 µM (inactive)
Clc1nc(NCCc2ccccc2)c2ncn(-c3ccccc3)c2n1,12.9 µM (inactive),23.2 µM (inactive),25.5,20.6 µM (inactive),21.5 µM (inactive),22 µM (inactive),23.1 µM (inactive),21.3 µM (inactive),18 µM (inactive),22 µM (inactive),18.5 µM (inactive),16.2 µM (inactive),17.1 µM (inactive),23.4 µM (inactive),15.8 µM (inactive),7.83 µM (inactive),21.1 µM (inactive),16.1 µM (inactive),–
C=C(C)CCN(C(=O)OC(C)(C)C)c1cc(C(C)C)co1,> 100 µM (inactive),58.2 µM (inactive),> 100,> 100 µM (inactive),> 100 µM (inactive),30.3 µM (inactive),12.2 µM (inactive),28 µM (inactive),–,47.9 µM (inactive),20.2 µM (inactive),26.7 µM (inactive),52 µM (inactive),24.8 µM (inactive),34 µM (inactive),> 100 µM (inactive),–,22.4 µM (inactive),33.5 µM (inactive)
O=c1[nH]c2cc3cccnc3c(Cl)c2nc1CBr,10.5 µM (inactive),13.8 µM (inactive),3.08,15.5 µM (inactive),13.5 µM (inactive),8.97 µM (inactive),26.5 µM (inactive),13.9 µM (inactive),–,11.7 µM (inactive),6.05 µM (inactive),15.4 µM (inactive),–,5.89 µM (inactive),18.7 µM (inactive),15.1 µM (inactive),23.1 µM (inactive),15.7 µM (inactive),6.18 µM (inactive)
